Measurements reported in US11000033B2, “Ketone or oxime compound, and herbicide” (NISSAN CHEMICAL CORPORATION, priority 2014, dated 2021).

What was measured:
Format in all cases: in vivo
Monochoria vaginalis = experiment: Test Example 1: herbicidal activity, application before weed generation in submerged conditions (symbol C); details: application herbicide amount 320 g/ha
Method in brief: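 Flooded alluvial soil (4 cm water) was mixed-sown with the three weed species, and 2.5-leaf rice seedlings were transplanted. On sowing day, a water-diluted emulsion at a predetermined rate was applied to the water surface. After 3 weeks in a 25–30 °C greenhouse, effect was scored 0–5.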

[1] = tested on: Echinochloa crus-galli var. crus-galli; experiment: Test Example 3: herbicidal effect by foliage application, Wagner pot (symbol H); details: application herbicide amount 320 g/ha
Method in brief: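 Foliar spray of water-diluted emulsion formulation at a predetermined herbicide amount onto 14-day-old plants in flooded alluvial soil (water depth 0.1–0.5 cm), greenhouse 25–30 °C; rice sown alongside. Scored 3 wk post-application on set criteria.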

[2] = tested on: directly sowed rice plant; experiment: Test Example 3: effect on crop by foliage application, Wagner pot (symbol b); details: application herbicide amount 320 g/ha
Method in brief: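 Plants are raised from seed in flooded paddy conditions: water stands 0.1–0.5 cm over alluvial soil, and the pot is kept in a greenhouse at 25–30 °C. Species sown are barnyardgrass (E. crus-galli var. crus-galli), Leptochloa chinensis, Cyperus difformis and rice.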

Alopecurus myosuroides = experiment: Test Example 4: herbicidal effect by soil treatment (symbol J); details: application herbicide amount 320 g/ha
Method in brief: (§1)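 Seeds were sown in sterilized diluvial soil, covered with about 1.5 cm of soil, and the soil surface was sprayed with a water-diluted emulsion of the compound at a predetermined rate. Plants grew in a greenhouse at 25° C. to 30° C.; effects were scored visually 3 weeks after application.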

Lolium multiflorum Lam. = experiment: Test Example 4: herbicidal effect by soil treatment (symbol K); details: application herbicide amount 320 g/ha
Method in brief: as §1

Apera spica-venti = experiment: Test Example 4: herbicidal effect by soil treatment (symbol L); details: application herbicide amount 320 g/ha
Method in brief: as §1

Amaranthus retroflexus = experiment: Test Example 4: herbicidal effect by soil treatment (symbol N); details: application herbicide amount 320 g/ha
Method in brief: as §1

Stellaria media = experiment: Test Example 4: herbicidal effect by soil treatment (symbol P); details: application herbicide amount 320 g/ha
Method in brief: as §1

corn = experiment: Test Example 4: effect on crop by soil treatment (symbol c); details: application herbicide amount 320 g/ha
Method in brief: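 Grown at 25° C. to 30° C. in a greenhouse, the crops came from seed sown spot-wise in sterilized diluvial soil under roughly 1.5 cm of covering soil.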

Setaria viridis = experiment: Test Example 5: herbicidal effect by foliage application, plastic box (symbol G); details: 320 g/ha, 3 weeks after application
Method in brief: (§2)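 Effect is rated 3 weeks after a foliar spray of water-diluted emulsion concentrate at a predetermined herbicide amount. Plants had grown 14 days in a 25° C. to 30° C. greenhouse from seed in sterilized diluvial soil.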

[3] = tested on: Echinochloa crus-galli var. crus-galli; experiment: Test Example 5: herbicidal effect by foliage application, plastic box (symbol H); details: 320 g/ha, 3 weeks after application
Method in brief: as §2

Abutilon theophrasti = experiment: Test Example 5: herbicidal effect by foliage application, plastic box (symbol M); details: 320 g/ha, 3 weeks after application
Method in brief: as §2

Chenopodium album = experiment: Test Example 5: herbicidal effect by foliage application, plastic box (symbol O); details: 320 g/ha, 3 weeks after application
Method in brief: as §2

Veronica persica = experiment: Test Example 5: herbicidal effect by foliage application, plastic box (symbol R); details: 320 g/ha, 3 weeks after application
Method in brief: as §2

soybean = experiment: Test Example 5: effect on crop by foliage application, plastic box (symbol d); details: 320 g/ha, 3 weeks after application
Method in brief: (§3)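 Sterilized diluvial soil, plastic box (21 × 13 × 7 cm); spot sowing, ~1.5 cm soil cover; greenhouse 25–30° C.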

wheat = experiment: Test Example 5: effect on crop by foliage application, plastic box (symbol e); details: 320 g/ha, 3 weeks after application
Method in brief: as §3

| Structure (SMILES) | Herbicidal effect grade, C: Monochoria vaginalis (Monochoria vaginalis) | herbicidal effect on H (Echinochloa crus-galli var. crus-galli), grade 0-5 [1] | effect on crop b (directly sowed rice plant), grade 0-5 [2] | J (Alopecurus myosuroides) herbicidal effect grade (Alopecurus myosuroides) | K (Lolium multiflorum Lam.) herbicidal effect grade (Lolium multiflorum Lam.) | L (Apera spica-venti) herbicidal effect grade (Apera spica-venti) | N (Amaranthus retroflexus) herbicidal effect grade (Amaranthus retroflexus) | P (Stellaria media) herbicidal effect grade (Stellaria media) | c (corn) effect on crop grade (corn) | G: Setaria viridis, herbicidal effect grade (Setaria viridis) | H: Echinochloa crus-galli var. crus-galli, herbicidal effect grade [3] | M: Abutilon theophrasti, herbicidal effect grade (Abutilon theophrasti) | O: Chenopodium album, herbicidal effect grade (Chenopodium album) | R: Veronica persica, herbicidal effect grade (Veronica persica) | d: soybean, effect on crop grade (soybean) | e: wheat, effect on crop grade (wheat) |
| --- | --- | --- | --- | --- | --- | --- | --- | --- | --- | --- | --- | --- | --- | --- | --- | --- |
| CON=C(C)C(c1ccc(F)cc1)C1CC(O)=C(c2c(C)cc(C)cc2C)C1=O (centres unmarked) [1-049] | 0 (Herbicidal ratio of 5% or lower (almost no effect)) | 0 (Herbicidal ratio of 5% or lower (almost no effect)) | 0 (Herbicidal ratio of 5% or lower (almost no effect)) | 0 (Herbicidal ratio of 5% or lower (almost no effect)) | 0 (Herbicidal ratio of 5% or lower (almost no effect)) | 0 (Herbicidal ratio of 5% or lower (almost no effect)) | 0 (Herbicidal ratio of 5% or lower (almost no effect)) | 0 (Herbicidal ratio of 5% or lower (almost no effect)) | 0 (Herbicidal ratio of 5% or lower (almost no effect)) | 0 (Herbicidal ratio of 5% or lower (almost no effect)) | 0 (Herbicidal ratio of 5% or lower (almost no effect)) | 0 (Herbicidal ratio of 5% or lower (almost no effect)) | 0 (Herbicidal ratio of 5% or lower (almost no effect)) | 0 (Herbicidal ratio of 5% or lower (almost no effect)) | 0 (Herbicidal ratio of 5% or lower (almost no effect)) | 0 (Herbicidal ratio of 5% or lower (almost no effect)) |
| CON=CCC1CC(O)=C(c2c(C)cc(C)cc2C)C1=O (centres unmarked) [1-050] | 3 (Herbicidal ratio of 40% or higher and lower than 70%) | 5 (Herbicidal ratio of 90% or more (almost completely withered)) | 5 (Herbicidal ratio of 90% or more (almost completely withered)) | 0 (Herbicidal ratio of 5% or lower (almost no effect)) | 4 (Herbicidal ratio of 70% or higher and lower than 90%) | 0 (Herbicidal ratio of 5% or lower (almost no effect)) | 0 (Herbicidal ratio of 5% or lower (almost no effect)) | 0 (Herbicidal ratio of 5% or lower (almost no effect)) | 0 (Herbicidal ratio of 5% or lower (almost no effect)) | 5 (Herbicidal ratio of 90% or more (almost completely withered)) | 5 (Herbicidal ratio of 90% or more (almost completely withered)) | 3 (Herbicidal ratio of 40% or higher and lower than 70%) | 0 (Herbicidal ratio of 5% or lower (almost no effect)) | 0 (Herbicidal ratio of 5% or lower (almost no effect)) | 0 (Herbicidal ratio of 5% or lower (almost no effect)) | 0 (Herbicidal ratio of 5% or lower (almost no effect)) |
| CON=C(C)CC1CC(OC(=O)C(C)(C)Oc2ccc(Cl)cc2)=C(c2c(C)cc(C)cc2C)C1=O (centres unmarked) [1-051] | 0 (Herbicidal ratio of 5% or lower (almost no effect)) | 5 (Herbicidal ratio of 90% or more (almost completely withered)) | 5 (Herbicidal ratio of 90% or more (almost completely withered)) | 5 (Herbicidal ratio of 90% or more (almost completely withered)) | 5 (Herbicidal ratio of 90% or more (almost completely withered)) | 5 (Herbicidal ratio of 90% or more (almost completely withered)) | 4 (Herbicidal ratio of 70% or higher and lower than 90%) | 0 (Herbicidal ratio of 5% or lower (almost no effect)) | 4 (Herbicidal ratio of 70% or higher and lower than 90%) | 5 (Herbicidal ratio of 90% or more (almost completely withered)) | 5 (Herbicidal ratio of 90% or more (almost completely withered)) | 4 (Herbicidal ratio of 70% or higher and lower than 90%) | 0 (Herbicidal ratio of 5% or lower (almost no effect)) | 0 (Herbicidal ratio of 5% or lower (almost no effect)) | 4 (Herbicidal ratio of 70% or higher and lower than 90%) | 5 (Herbicidal ratio of 90% or more (almost completely withered)) |
| CC(CC1CC(O)=C(c2c(C)cc(C)cc2C)C1=O)=NOC(C)C (centres unmarked) [1-052] | 0 (Herbicidal ratio of 5% or lower (almost no effect)) | 5 (Herbicidal ratio of 90% or more (almost completely withered)) | 5 (Herbicidal ratio of 90% or more (almost completely withered)) | 5 (Herbicidal ratio of 90% or more (almost completely withered)) | 5 (Herbicidal ratio of 90% or more (almost completely withered)) | 5 (Herbicidal ratio of 90% or more (almost completely withered)) | 3 (Herbicidal ratio of 40% or higher and lower than 70%) | 0 (Herbicidal ratio of 5% or lower (almost no effect)) | 3 (Herbicidal ratio of 40% or higher and lower than 70%) | 5 (Herbicidal ratio of 90% or more (almost completely withered)) | 5 (Herbicidal ratio of 90% or more (almost completely withered)) | 3 (Herbicidal ratio of 40% or higher and lower than 70%) | 1 (Herbicidal ratio of 5% or higher and lower than 20%) | 3 (Herbicidal ratio of 40% or higher and lower than 70%) | 4 (Herbicidal ratio of 70% or higher and lower than 90%) | 5 (Herbicidal ratio of 90% or more (almost completely withered)) |
| CC(CC1CC(O)=C(c2c(C)cc(C)cc2C)C1=O)=NOC(C)(C)C (centres unmarked) [1-053] | 0 (Herbicidal ratio of 5% or lower (almost no effect)) | 5 (Herbicidal ratio of 90% or more (almost completely withered)) | 5 (Herbicidal ratio of 90% or more (almost completely withered)) | 3 (Herbicidal ratio of 40% or higher and lower than 70%) | 5 (Herbicidal ratio of 90% or more (almost completely withered)) | 3 (Herbicidal ratio of 40% or higher and lower than 70%) | 0 (Herbicidal ratio of 5% or lower (almost no effect)) | 0 (Herbicidal ratio of 5% or lower (almost no effect)) | 1 (Herbicidal ratio of 5% or higher and lower than 20%) | 3 (Herbicidal ratio of 40% or higher and lower than 70%) | 4 (Herbicidal ratio of 70% or higher and lower than 90%) | 0 (Herbicidal ratio of 5% or lower (almost no effect)) | 1 (Herbicidal ratio of 5% or higher and lower than 20%) | 2 (Herbicidal ratio of 20% or higher and lower than 40%) | 3 (Herbicidal ratio of 40% or higher and lower than 70%) | 0 (Herbicidal ratio of 5% or lower (almost no effect)) |
